From paper PMC11214487, “YZL-51N functions as a selective inhibitor of SIRT7 by NAD^+ competition to impede DNA damage repair” (iScience, 2024)
pEC50: −log10 of the molar value.

Experiments:
SIRT7 = molecular target: T1, SIRT7 (Homo sapiens, UniProt Q9NRC8); assay: Dot blot assay of SIRT7-mediated H3K18ac peptide deacetylation; assay type: biochemical
T1 construct: His-tagged full length SIRT7 protein expression from BL21 bacterial cells; His; made in house; host or cells: E. coli BL21
T1 sequence (Q9NRC8 1-400): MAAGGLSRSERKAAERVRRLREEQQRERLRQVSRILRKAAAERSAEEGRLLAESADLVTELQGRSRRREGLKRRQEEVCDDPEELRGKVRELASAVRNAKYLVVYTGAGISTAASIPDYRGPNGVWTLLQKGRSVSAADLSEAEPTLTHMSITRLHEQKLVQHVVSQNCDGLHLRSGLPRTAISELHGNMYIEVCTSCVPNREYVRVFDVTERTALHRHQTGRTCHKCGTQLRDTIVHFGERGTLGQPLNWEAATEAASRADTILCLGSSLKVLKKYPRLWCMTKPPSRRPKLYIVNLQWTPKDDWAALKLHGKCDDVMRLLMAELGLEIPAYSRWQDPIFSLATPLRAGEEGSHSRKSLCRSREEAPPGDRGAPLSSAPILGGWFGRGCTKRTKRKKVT
Text: To avoid the bias of the fluorescence assay, we also performed dot blot assays for the effects of natural compounds on SIRT7-mediated deacetylation of H3K18ac peptides in vitro (Figures S2A and S2B). In this system, SIRT7 mediated a dose-dependent deacetylation of H3K18ac (Figure 1D). […] Based on comparisons of all the candidates, we selected YZL-51N as the best for further investigation (Figure 1F). […] Thus, P. americana derived YZL-51N was confirmed as an identified SIRT7 inhibitor using parallel peptide-based screening platforms.
For dot blot assays, the reaction system containing 10 μg His-SIRT7, 0.5 mM NAD^+, 10 μM biotin-H3K18ac peptides and 50 μM potential compound was mixed and incubated at 37°C for 90 min. Samples were transferred to a polyvinylidene difluoride (PVDF) membrane, and then blocked with 5% skimmed milk. The blots were probed with H3K18ac primary antibody at RT for 2 h and then incubated with secondary antibody at RT for 1h. The bands were visualized using ECL substrates (Thermo Fisher, USA) on Tanon 5200SF Imaging System.

SIRT6 = SIRT6 (Homo sapiens, UniProt Q8N6T7); assay: Cellular thermal shift assay in HCT116 cell lysates; assay type: binding; design: endogenous in cells; host or cells: HCT116; details: 20 μM
SIRT6, sequence (Q8N6T7 whole entry): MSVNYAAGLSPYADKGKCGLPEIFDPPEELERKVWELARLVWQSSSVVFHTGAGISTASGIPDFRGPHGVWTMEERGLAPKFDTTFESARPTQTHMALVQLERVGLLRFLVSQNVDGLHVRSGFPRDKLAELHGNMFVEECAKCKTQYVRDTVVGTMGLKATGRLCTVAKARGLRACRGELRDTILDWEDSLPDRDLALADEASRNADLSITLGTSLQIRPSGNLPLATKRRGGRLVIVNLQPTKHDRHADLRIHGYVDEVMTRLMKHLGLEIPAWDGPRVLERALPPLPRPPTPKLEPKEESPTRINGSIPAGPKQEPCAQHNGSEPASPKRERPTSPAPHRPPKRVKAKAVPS
Description: Cellular thermal shift assays were performed according to previously reported methods with some modifications.[66] Briefly, HCT116 cells were lysed with RIPA buffer and incubated with 20 μM YZL-51N or DMSO for 1 h on ice. Subsequently, cell lysates were divided into 70 μL aliquots and heated individually at different temperatures for 4 min following by cooling on ice. The heated lysates were centrifuged, and 50 μL supernatants were taken for SDS-PAGE and immunoblotting analysis with the indicated antibodies.

COC(=O)/C(=C\C(=O)c1ccc(O)c(O)c1)c1ccc(O)c(O)c1 [YZL-51N]
Rescue of H3K18 acetylation (SIRT7; dot blot screening, 50 μM): rescued H3K18 acetylation | pEC50 (SIRT7; read-out: Dot blot assay H3K18ac rescue EC50): 4.87 | Effect on the melting curve (SIRT6): no obvious effect
